18 compounds from PubChem BioAssay (NCI) can be followed below.

Structures are written as SMILES.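 Assay format: 96-well plates, 48-hour exposure. GI50 = concentration required for 50% inhibition of growth. At the TGI there is no net growth.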

Some test systems named below: KM20L2 colon; DLD-1 colon; SNB-78 CNS; M19-MEL melanoma; HOP-18 NSCLC; MDA-N; DMS 114 small cell lung; P388/ADR leukemia; SN12K1 renal; RXF-631 renal; XF 498 CNS.
What all share (test): NCI tumour cell line growth inhibition, 48 h

As for `CCCCCCCCCCCCCCCCCC(=O)Nc1ccn(C2OC(CO)C(O)C2O)c(=O)n1` (stereo not given), the TGI in the assay on KM20L2 colon, with DLD-1 colon, with SNB-78 CNS, in the assay with M19-MEL melanoma, in the assay with HOP-18 NSCLC and in the assay on MDA-N was greater than 100 µM in each case.

For `O=NN(CCCl)C(=O)NC1CCC(CC2CCC(NC(=O)N(CCCl)N=O)CC2)CC1` (stereo not given), the TGI in the assay with DMS 114 small cell lung was greater than 55.1 µM; with KM20L2 colon, greater than 100 µM; in the assay on DLD-1 colon, greater than 62.4 µM; in the assay with SNB-78 CNS, greater than 87.3 µM; in the assay with P388/ADR leukemia, 5.03 µM; with M19-MEL melanoma, greater than 100 µM. The TGI is greater than 56.2 µM in the assay on HOP-18 NSCLC, 34.2 µM in the assay on SN12K1 renal, greater than 100 µM in the assay with RXF-631 renal and 19.8 µM in the assay on XF 498 CNS.

`CC(C)=CC(=O)Cc1nc2ccc([N+](=O)[O-])cc2[nH]c1=O`: the TGI with DMS 114 small cell lung, in the assay on KM20L2 colon, with DLD-1 colon, in the assay on SNB-78 CNS, in the assay with M19-MEL melanoma and with XF 498 CNS was greater than 100 µM throughout.

In the case of `CN(C)CC/C(=N\Nc1ccc(Cl)cc1Cl)c1ccccc1`, the TGI in the assay on DMS 114 small cell lung is 27.6 µM; in the assay on KM20L2 colon it was 27.5 µM; with DLD-1 colon, 23.8 µM; with SNB-78 CNS, 27.6 µM; in the assay on M19-MEL melanoma, 31.5 µM; in the assay with HOP-18 NSCLC it was 28.7 µM.

`CCN(CC)C(=S)[S][Bi]([S]C(=S)N(CC)CC)[S]C(=S)N(CC)CC`: the GI50 was 0.0193 µM in the assay with DMS 114 small cell lung; 0.128 µM in the assay on KM20L2 colon; 0.0404 µM with DLD-1 colon; 0.598 µM in the assay on SNB-78 CNS; 0.162 µM in the assay on M19-MEL melanoma; 0.202 µM with HOP-18 NSCLC. Also, the GI50 in the assay on MDA-N was 0.728 µM. Also, the TGI in the assay on DMS 114 small cell lung was found to be 0.0444 µM; in the assay on KM20L2 colon, 1.23 µM; with DLD-1 colon it was 0.208 µM; in the assay on SNB-78 CNS, 2.13 µM; in the assay on M19-MEL melanoma it was 0.314 µM; in the assay on HOP-18 NSCLC it was 0.375 µM. For the same compound, the TGI in the assay on MDA-N turned out to be 2.04 µM.

`Cc1ccc([C@]2(C)CC[C@H](C)/C2=C\Br)c(O)c1`: in the assay with MDA-N, the GI50 is 2.74 µM and the TGI worked out at 10.3 µM.

For the compound `N#CCC(=O)N1CCCCCCC1`, the TGI with DMS 114 small cell lung was 91.7 µM; in the assay on KM20L2 colon it was greater than 100 µM; in the assay with DLD-1 colon it was greater than 100 µM; in the assay with SNB-78 CNS it was greater than 100 µM.

Consider `Cc1ccc(C(=O)CC2=Nc3nnc(CCCCCCCc4nnc5n4C(=O)C(CC(=O)c4ccc(C)cc4)=N5)n3C2=O)cc1`, for which the TGI with DMS 114 small cell lung, in the assay on KM20L2 colon, in the assay with DLD-1 colon, in the assay on M19-MEL melanoma, with HOP-18 NSCLC and with RXF-631 renal was greater than 100 µM in each case. In the assay with XF 498 CNS, the TGI was greater than 100 µM.

For the compound `CC(=C/c1ccccc1)/C=C1/NC(=S)N(/C=C2\C(=O)Oc3ccccc3C2=O)C1=O`, in the assay with MDA-N, the TGI is greater than 100 µM.

In turn, `Oc1c(CN2CCN(c3ccccc3)CC2)cc(Br)c2cccnc12` returned a TGI with MDA-N greater than 100 µM.

On to `CCC[CH2][Sn]1([CH2]CCC)[O]CC(C)[O]1` (stereo not given), for which the GI50 in the assay on DMS 114 small cell lung was 1.11 µM; in the assay with KM20L2 colon, 2.53 µM; in the assay on DLD-1 colon, 1.47 µM; in the assay with SNB-78 CNS, 0.301 µM; in the assay on M19-MEL melanoma, 0.803 µM; in the assay with XF 498 CNS it was 0.99 µM. For the same compound, the TGI stood at 2.49 µM in the assay on DMS 114 small cell lung; 6.86 µM in the assay with KM20L2 colon; 3.32 µM in the assay on DLD-1 colon; 0.909 µM with SNB-78 CNS; 2.23 µM with M19-MEL melanoma; 2.33 µM in the assay on XF 498 CNS.

In turn, `O=C(O)c1cc2ccccc2c2c1C(=O)c1ccccc1-2` gave a TGI in the assay on MDA-N greater than 100 µM.

On to `O=C(/C=C\c1cccc2ccccc12)c1cccc2ccccc12`, for which the GI50 with KM20L2 colon is 3.96 µM; in the assay with DLD-1 colon, 3.43 µM; in the assay with RXF-631 renal it was 10.5 µM. The TGI in the assay on KM20L2 colon stood at 15 µM; in the assay on DLD-1 colon, 15.8 µM; in the assay with M19-MEL melanoma it was 33.6 µM; with RXF-631 renal, 26.4 µM.

With `C=CC1=C(C)C2=NC1=CC1=NC(=C(CC)/C1=C\O)C=C1N=C3C(=C1C)C(=O)[C@H](C(=O)OC)C3=C1NC(=C2)[C@@H](C)[C@@H]1CCC(=O)O`, in the assay with MDA-N, the TGI was greater than 100 µM.

Take `O=[N+]([O-])c1ccc(C=NC23CC4CC(CC(C4)C2)C3)cc1`: the TGI in the assay on DMS 114 small cell lung, in the assay with KM20L2 colon, in the assay with DLD-1 colon, in the assay on SNB-78 CNS, in the assay with M19-MEL melanoma and in the assay with HOP-18 NSCLC was greater than 100 µM in each case. Moreover, the TGI in the assay on RXF-631 renal and in the assay on XF 498 CNS was greater than 100 µM in each case.

`CN1C/C(=C\C=C\c2ccccc2)C(=O)/C(=C/C=C/c2ccccc2)C1`: the TGI with DMS 114 small cell lung, in the assay with KM20L2 colon, with DLD-1 colon, in the assay on SNB-78 CNS, in the assay with M19-MEL melanoma and in the assay with RXF-631 renal was greater than 100 µM in each case. In the assay with XF 498 CNS, this compound gave a TGI greater than 100 µM.

As to `CC1(C)N=C(c2ccccn2)C(c2ccccn2)=NC1(C)C`, the TGI in the assay with DMS 114 small cell lung, in the assay with KM20L2 colon, in the assay with DLD-1 colon, in the assay with SNB-78 CNS, in the assay on M19-MEL melanoma and in the assay with RXF-631 renal was greater than 100 µM throughout. Also, in the assay with XF 498 CNS, the TGI is greater than 100 µM.

With `CCN(CC)CCNC(=O)c1cccc2nc3ccccc3nc12`, the TGI was 22.3 µM in the assay with DMS 114 small cell lung; 67.8 µM in the assay with KM20L2 colon; greater than 100 µM with DLD-1 colon; 71.2 µM in the assay with SNB-78 CNS; greater than 63.4 µM with HOP-18 NSCLC.
